In patent US20250215030A1, “STAT MODULATORS AND USES THEREOF” (Recludix Pharma, Inc., priority 2022, published 2025) one finds IC50 data, which are given here for 11 compounds.

One assay has as its target T1, pSTAT6 (pY641-STAT6) (Homo sapiens, UniProt P42226).
T1 construct: host or cells: cryopreserved PBMC
T1 sequence (P42226 1-847): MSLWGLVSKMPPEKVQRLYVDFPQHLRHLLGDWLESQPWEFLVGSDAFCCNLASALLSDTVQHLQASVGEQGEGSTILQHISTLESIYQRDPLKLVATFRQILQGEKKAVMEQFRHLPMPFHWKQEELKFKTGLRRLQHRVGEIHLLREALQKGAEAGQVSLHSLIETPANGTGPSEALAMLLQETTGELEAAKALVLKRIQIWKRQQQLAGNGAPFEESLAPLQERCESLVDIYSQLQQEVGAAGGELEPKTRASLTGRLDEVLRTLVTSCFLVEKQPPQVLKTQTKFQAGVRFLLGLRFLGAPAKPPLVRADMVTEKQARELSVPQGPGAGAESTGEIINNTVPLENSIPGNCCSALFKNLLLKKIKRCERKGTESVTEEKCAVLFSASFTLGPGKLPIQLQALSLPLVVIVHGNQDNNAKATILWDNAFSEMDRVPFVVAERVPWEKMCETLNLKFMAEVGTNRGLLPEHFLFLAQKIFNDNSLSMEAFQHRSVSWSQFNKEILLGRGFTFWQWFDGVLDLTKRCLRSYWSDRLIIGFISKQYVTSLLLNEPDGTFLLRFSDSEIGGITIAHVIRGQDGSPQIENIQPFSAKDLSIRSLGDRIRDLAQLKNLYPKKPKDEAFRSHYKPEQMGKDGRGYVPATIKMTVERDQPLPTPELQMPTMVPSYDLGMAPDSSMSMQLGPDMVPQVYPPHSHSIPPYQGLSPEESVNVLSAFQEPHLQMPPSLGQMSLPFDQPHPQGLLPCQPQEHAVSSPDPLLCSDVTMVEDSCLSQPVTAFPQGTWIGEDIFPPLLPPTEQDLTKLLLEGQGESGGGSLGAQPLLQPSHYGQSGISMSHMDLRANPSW
As to the kind of experiment: MSD-pSTAT-PBMC Assay (pSTAT6, IL-4 stimulated). It counts as cell-based. Particulars: compound 3 hrs, then 1 ng/mL IL-4 for 10 min. The source says: Cryopreserved Peripheral Blood Mononuclear Cells (PBMC) are from AllCells. Recombinant Human IL-4 and IL-6 are from Peprotech. Mouse monoclonal anti-STAT3 antibody, rabbit monoclonal anti-pY705-STAT3 antibody, rabbit monoclonal Anti-pY641-STAT6 antibody, and lysis buffer are from Cell Signaling Technology (CST). Mouse monoclonal anti-STAT6 antibody is from BioLegend. Assay plates, blocker, and anti-rabbit secondary antibody are from Meso Scale Discovery (MSD).
Cryopreserved PBMCs were thawed out and allowed to recover overnight in IMDM+10% heat-inactivated FBS prior to plating 50,000 (STAT3) or 25,000 (STAT6) cells per well in 96-well U-bottom tissue culture plates. Cells were treated with compound for 3 hrs, then stimulated with 10 ng/mL IL-6 (STAT3) or 1 ng/mL IL-4 (STAT6) for 10 min. Cells were then spun down and washed with ice-cold PBS prior to lysing the cell pellet with 1× lysis buffer (CST) with 1× HALT protease and phosphatase inhibitor cocktail (Thermo). Lysates were transferred to and incubated overnight at 4° C. with shaking in QuickPlex 96-well high bind assay plates (MSD) pre-coated overnight with 30 μL per well of 0.6 μg/mL mouse monoclonal anti-STAT3 antibody (STAT3) or 2 μg/mL mouse monoclonal anti-STAT6 antibody (STAT6) in 1×PBS, and pre-blocked for 1 hour with 3% Blocker-A (MSD). Captured protein in the assay plates were then washed and probed with 25 μL per well of 0.25 μg/ml rabbit monoclonal anti-pY705-STAT3 antibody (STAT3) or 0.18 μg/ml rabbit monoclonal Anti-pY641-STAT6 antibody (STAT6) in 1% Blocker-A for 1 hour at room temperature with shaking, then washed and probed with 25 ul per well of 1 ug/mi Sulfo-TAG Labeled Goat Anti-Rabbit Antibody (MSD) in 1% Blocker-A for 1 hour at room temperature with shaking. Assay plates were then washed and 150 μL of 1× Read Buffer-T (MSD) was added to each well prior to reading on an SQ120 MSD Plate Reader. Assay signal from each sample was subtracted by the signal from unstimulated control wells and normalized to DMSO control wells. IC50 values were calculated using Graph Pad Prism Dose-Response Nonlinear Regression with variable slope. For both pSTAT3 and pSTAT6 A=≤100 nM; B=>100-1000 nM; C=>1000-3000 nM; and D=>3 μM.

A further assay has as its target T2, pSTAT3 (pY705-STAT3) (Homo sapiens, UniProt P40763).
T2 construct: host or cells: cryopreserved PBMC
The assay is described as follows: MSD-pSTAT-PBMC Assay (pSTAT3, IL-6 stimulated). The assay is classed as cell-based. Particulars: PBMC, compound 3 hrs, then 10 ng/mL IL-6 for 10 min; MSD pY705-STAT3; read-out: pSTAT3. The essentials:
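Human PBMCs (50,000 cells/well for STAT3, 25,000 for STAT6) treated with compound 3 h, then stimulated 10 min with 10 ng/mL IL-6 or 1 ng/mL IL-4. Lysate pSTAT3 (pY705) or pSTAT6 (pY641) measured by MSD sandwich electrochemiluminescence. Signal minus unstimulated, normalized to DMSO; IC50 by variable-slope nonlinear regression.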

T2 sequence (P40763 whole entry): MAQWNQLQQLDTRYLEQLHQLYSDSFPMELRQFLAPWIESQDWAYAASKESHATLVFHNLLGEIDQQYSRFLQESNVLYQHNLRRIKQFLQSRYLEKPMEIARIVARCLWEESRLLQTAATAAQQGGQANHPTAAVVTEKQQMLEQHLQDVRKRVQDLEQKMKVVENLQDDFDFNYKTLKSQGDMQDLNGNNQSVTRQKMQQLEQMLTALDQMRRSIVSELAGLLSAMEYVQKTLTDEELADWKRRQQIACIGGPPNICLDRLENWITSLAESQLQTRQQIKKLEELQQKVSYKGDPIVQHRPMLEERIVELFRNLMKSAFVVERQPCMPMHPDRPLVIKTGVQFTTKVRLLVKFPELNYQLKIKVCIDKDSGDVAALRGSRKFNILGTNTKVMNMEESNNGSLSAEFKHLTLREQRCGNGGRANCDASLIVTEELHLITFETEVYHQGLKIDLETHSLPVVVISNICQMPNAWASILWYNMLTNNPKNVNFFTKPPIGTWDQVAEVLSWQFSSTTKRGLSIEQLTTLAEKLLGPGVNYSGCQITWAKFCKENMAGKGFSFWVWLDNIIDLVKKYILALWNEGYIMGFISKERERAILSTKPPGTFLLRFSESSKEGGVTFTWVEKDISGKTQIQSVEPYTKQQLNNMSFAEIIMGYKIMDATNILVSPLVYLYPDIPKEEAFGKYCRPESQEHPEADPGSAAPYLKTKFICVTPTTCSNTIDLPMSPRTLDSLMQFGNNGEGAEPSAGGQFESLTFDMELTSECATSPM

As for `CC(C)(CO)C(=O)SCCOP(=O)(Cc1ccc2sc(C(=O)N[C@H]3C[C@@H]4C[C@@H]4C[C@H]4CC[C@@H](C(=O)N5CC(n6ccnc6)C5)N4C3=O)cc2c1)OCCSC(=O)C(C)(C)CO` [Compound 146, S,S′-(((((2-(((3S,6S,7aS, 8aR,9aR)-3-(3-(1H-imidazol-1-yl)azetidine-1-carbonyl)-5-oxodecahydro-1H-cyclopropa[d]pyrrolo[1,2-a]azocin-6-yl)carbamoyl)benzo[b]thiophen-5-yl)methyl)phosphoryl)bis(oxy))bis(ethane-2,1-diyl)) bis(3-hydroxy-2,2-dimethyl-propanethioate)], the IC50 at pSTAT6 (pY641-STAT6) and on pSTAT3 (pY705-STAT3) was > 3000 nM in each case.

For `CC(C)OC(=O)OCOP(=O)(Cc1ccc2sc(C(=O)N[C@H]3C[C@@H]4C[C@@H]4C[C@H]4CC[C@@H](C(=O)N5CC(C(=O)N6CCOCC6)C5)N4C3=O)cc2c1)OCOC(=O)OC(C)C` [Compound 148], the values for the IC50 against pSTAT6 (pY641-STAT6) and on pSTAT3 (pY705-STAT3) were > 3000 nM and 100 to 1000 nM, respectively.

In the case of `CCCC(=O)SCCOP(=O)(Cc1ccc2sc(C(=O)N[C@H]3C[C@@H]4C[C@@H]4C[C@H]4CC[C@@H](C(=O)N5CC(C(=O)N6CCOCC6)C5)N4C3=O)cc2c1)OCCSC(=O)CCC` [Compound 149, S,S′-(((((2-(((3S,6S,7aS, 8aR,9aR)-3-(3-(morpholine-4-carbonyl)azetidine-1-carbonyl)-5-oxodecahydro-1H-cyclopropa[d]pyrrolo[1,2-a]azocin-6-yl)carbamoyl)benzo[b]thiophen-5-yl)methyl)phosphoryl)bis(oxy))bis(ethane-2,1-diyl)) dibutanethioate], the IC50 against pSTAT6 (pY641-STAT6) is > 3000 nM; at pSTAT3 (pY705-STAT3), 1000 to 3000 nM.

For `CC(C)(C)C(=O)OCOP(=O)(Cc1ccc2sc(C(=O)N[C@H]3C[C@@H]4C[C@@H]4C[C@H]4CC[C@@H](C(=O)N5CC(C(=O)N6CCOCC6)C5)N4C3=O)cc2c1)OCOC(=O)C(C)(C)C` [Compound 150, ((((2-(((3S,6S, 7aS,8aR,9aR)-3-(3-morpholine-4-carbonyl)azetidine-1-carbonyl)-5-oxodecahydro-1H-cyclopropa [d]pyrrolo[1,2-a]azocin-6-yl)carbamoyl)benzo [b]thiophen-5-yl)methyl)phosphoryl) bis(oxy)) bis(methylene) bis(2,2-dimethyl-propanoate)], the values for the IC50 at pSTAT6 (pY641-STAT6) and at pSTAT3 (pY705-STAT3) were > 3000 nM and < 100 nM, respectively.

Take `CC(C)(C)C(=O)SCCOP(=O)(Cc1ccc2sc(C(=O)N[C@H]3C[C@@H]4C[C@@H]4C[C@H]4CC[C@@H](C(=O)N5CC(n6ccnc6)C5)N4C3=O)cc2c1)OCCSC(=O)C(C)(C)C` [Compound 151, S,S′-(((((2-(((3S,6S,7aS, 8aR,9aR)-3-(3-(1H-imidazol-1-yl)azetidine-1-carbonyl)-5-oxodecahydro-1H-cyclopropa [d]pyrrolo[1,2-a]azocin-6-yl)carbamoyl)benzo[b]thiophen-5-yl)methyl)phosphoryl)bis(oxy))bis(ethane-2,1-diyl)) bis(2,2-dimethyl-propanethioate)]: the IC50 against pSTAT6 (pY641-STAT6) was > 3000 nM; on pSTAT3 (pY705-STAT3) it was 100 to 1000 nM.

In the case of `CC(C)OC(=O)OCOP(=O)(OCOC(=O)OC(C)C)[C@@H](F)c1ccc2sc(C(=O)N[C@H]3C[C@H]4C[C@H]4C[C@H]4CC[C@@H](C(=O)N5CC(c6cccnc6)C5)N4C3=O)cc2c1` [Compound 152, ((((R)-fluoro(2-(((3S,6S,7aR, 8aS,9aR)-5-oxo-3-(3-(pyridin-3-yl)azetidine-1-carbonyl)decahydro-1H-cyclopropa[d]pyrrolo[1,2-a]azocin-6-yl)carbamoyl)benzo[b]thiophen-5-yl)methyl)phosphoryl)bis(oxy)) bis(methylene) diisopropyl bis(carbonate)], the IC50 at pSTAT6 (pY641-STAT6) was 100 to 1000 nM; at pSTAT3 (pY705-STAT3), < 100 nM.

In the case of `CC(C)OC(=O)[C@H](C)NP(=O)(Cc1ccc2sc(C(=O)N[C@H]3C[C@@H]4C[C@@H]4C[C@H]4CC[C@@H](C(=O)N5CC(C(=O)N6CCOCC6)C5)N4C3=O)cc2c1)Oc1ccccc1` (stereo partly drawn) [Compound 154, isopropyl (((2-(((3S,6S,7aS, 8aR,9aR)-3-(3-(morpholine-4-carbonyl)azetidine-1-carbonyl)-5-oxodecahydro-1H-cyclopropa[d]pyrrolo[1,2-a]azocin-6-yl)carbamoyl)benzo[b]thiophen-5-yl)methyl) (phenoxy) (phosphoryl)-L-alaninate], the IC50 against pSTAT6 (pY641-STAT6) was > 3000 nM; on pSTAT3 (pY705-STAT3), 100 to 1000 nM.

Consider `CC(C)(C)C(=O)OCOP(=O)(Cc1ccc2sc(C(=O)N[C@H]3C[C@H]4C[C@H]4C[C@H]4CC[C@@H](C(=O)N5CC(c6ccccn6)C5)N4C3=O)cc2c1)OCOC(=O)C(C)(C)C` [Compound 155, ((((2-(((3S,6S,7aR, 8aS,9aR)-5-oxo-3-(3-(pyridin-2-yl)azetidine-1-carbonyl)decahydro-1H-cyclopropa[d]pyrrolo[1,2-a]azocin-6-yl)carbamoyl)benzo[b]thiophen-5-yl)methyl)phosphoryl)bis(oxy)) bis(methylene) bis(2,2-dimethyl-pronanoate)], for which the figures for the IC50 on pSTAT6 (pY641-STAT6) and on pSTAT3 (pY705-STAT3) were 1000 to 3000 nM and < 100 nM, respectively.

`CC(C)(C)C(=O)OCOP(=O)(Cc1ccc2sc(C(=O)N[C@H]3C[C@@H]4C[C@@H]4C[C@H]4CC[C@@H](C(=O)N5CC(n6ccnc6)C5)N4C3=O)cc2c1)OCOC(=O)C(C)(C)C` [Compound 156, ((((2-(((3S,6S,7aS, 8aR,9aR)-3-(3-(1H-imidazol-1-yl)azetidine-1-carbonyl)-5-oxodecahydro-1H-cyclopropa[d]pyrrolo[1,2-a]azocin-6-yl)carbamoyl)benzo[b]thiophen-5-yl)methyl)phosphoryl)bis(oxy)) bis(methylene) bis(2,2-dimethyl-propanoate)]: the IC50 at pSTAT6 (pY641-STAT6) is > 3000 nM; on pSTAT3 (pY705-STAT3), < 100 nM.

With `CC(C)OC(=O)OCOP(=O)(Cc1ccc2sc(C(=O)N[C@H]3C[C@@H]4C[C@@H]4C[C@H]4CC[C@@H](C(=O)N5CC(n6ccnc6)C5)N4C3=O)cc2c1)OCOC(=O)OC(C)C` [Compound 157, ((((2-(((3S,6S,7aS, 8aR,9aR)-3-(3-(1H-imidazol-1-yl)azetidine-1-carbonyl)-5-oxodecahydro-1H-cyclopropa[d]pyrrolo[1,2-a]azocin-6-yl)carbamoyl)benzo[b]thiophen-5-yl)methyl)phosphoryl)bis(oxy)) bis(methylene) diisopropyl bis(carbonate)], the IC50 is > 3000 nM at pSTAT6 (pY641-STAT6) and < 100 nM at pSTAT3 (pY705-STAT3).

For the compound `CCCC(=O)SCCOP(=O)(Cc1ccc2sc(C(=O)N[C@H]3C[C@@H]4C[C@@H]4C[C@H]4CC[C@@H](C(=O)N5CC(n6ccnc6)C5)N4C3=O)cc2c1)OCCSC(=O)CCC` [Compound 158, S,S′-(((((2-(((3S,6S,7aS, 8aR,9aR)-3-(3-(1H-imidazol-1-yl)azetidine-1-carbonyl)-5-oxodecahydro-1H-cyclopropa[d]pyrrolo[1,2-a]azocin-6-yl)carbamoyl)benzo[b]thiophen-5-yl)methyl)phosphoryl)bis(oxy))bis(ethane-2,1-diyl)) dibutanethioate], the IC50 at pSTAT6 (pY641-STAT6) was > 3000 nM; at pSTAT3 (pY705-STAT3) it was 100 to 1000 nM.
